According to ChEMBL document CHEMBL1201862, “PubChem BioAssay data set” (2004):
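48-hour exposure; five concentrations; linearly interpolated endpoints. Here, GI50 denotes the concentration required for 50% inhibition of growth.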 Activity calls are given as the source filed them. Rule as the data show it: active = GI50 up to about 1.1 µM and inactive = higher.

Key:
Experiment in all cases: NCI anticancer screen, dose series, 48 h
A498 = tested on: A498
ACHN = tested on: ACHN
CAKI-1 = tested on: CAKI-1
HCT-15 = tested on: HCT-15
HT-29 = tested on: HT-29
MDA-MB-435 = tested on: MDA-MB-435
MDA-N = tested on: MDA-N
Malme-3M = tested on: Malme-3M
NCI-H23 = tested on: NCI-H23
NCI/ADR-RES = tested on: NCI/ADR-RES
OVCAR-4 = tested on: OVCAR-4
SF-295 = tested on: SF-295
SK-MEL-28 = tested on: SK-MEL-28
SNB-75 = tested on: SNB-75
SR = tested on: SR
SW-620 = tested on: SW-620
U-251 = tested on: U-251
UACC-257 = tested on: UACC-257
UACC-62 = tested on: UACC-62
DU-145 = tested on: DU-145

CCc1cc2c(cc1O)CC[C@@H]1[C@@H]2CC[C@]2(C)[C@@H](O)CC[C@@H]12
GI50 (A498): 18.7 µM (inactive) | GI50 (ACHN): 8.81 µM (inactive) | GI50 (CAKI-1): 4.67 µM (inactive) | GI50 (HCT-15): 4.83 µM | GI50 (HT-29): 15 µM (inactive) | GI50 (MDA-MB-435): 1.73 µM (inactive) | GI50 (MDA-N): 2.07 µM (inactive) | GI50 (Malme-3M): 2.97 µM (inactive) | GI50 (NCI-H23): 7.14 µM (inactive) | GI50 (NCI/ADR-RES): 3.66 µM (inactive) | GI50 (OVCAR-4): 12.3 µM (inactive) | GI50 (SF-295): 3.91 µM (inactive) | GI50 (SK-MEL-28): 5.14 µM (inactive) | GI50 (SNB-75): 1.9 µM (inactive) | GI50 (SR): 3.08 µM (inactive) | GI50 (SW-620): 4.16 µM (inactive) | GI50 (U-251): 4.76 µM (inactive) | GI50 (UACC-257): 8.02 µM (inactive) | GI50 (UACC-62): > 10 µM (inactive)

Cc1cc(S(=O)(=O)O)c(NC(=O)C(=O)Cc2cc(=O)oc3cc(O)ccc23)cc1Cl
GI50 (A498): > 100 µM (inactive) | GI50 (ACHN): > 100 µM (inactive) | GI50 (CAKI-1): > 100 µM (inactive) | GI50 (HCT-15): > 100 µM | GI50 (HT-29): > 100 µM (inactive) | GI50 (Malme-3M): > 100 µM (inactive) | GI50 (NCI-H23): > 100 µM (inactive) | GI50 (OVCAR-4): > 100 µM (inactive) | GI50 (SF-295): > 100 µM (inactive) | GI50 (SK-MEL-28): > 100 µM (inactive) | GI50 (SNB-75): > 100 µM (inactive) | GI50 (SR): > 100 µM (inactive) | GI50 (SW-620): > 100 µM (inactive) | GI50 (U-251): > 100 µM (inactive) | GI50 (UACC-257): > 100 µM (inactive) | GI50 (UACC-62): > 100 µM (inactive)

CC1(C)Oc2ccccc2[N+]([O-])=C1c1ccccc1
GI50 (A498): > 100 µM (inactive) | GI50 (ACHN): > 100 µM (inactive) | GI50 (CAKI-1): > 100 µM (inactive) | GI50 (HCT-15): > 100 µM | GI50 (HT-29): > 100 µM (inactive) | GI50 (Malme-3M): > 100 µM (inactive) | GI50 (NCI-H23): > 100 µM (inactive) | GI50 (OVCAR-4): > 100 µM (inactive) | GI50 (SF-295): > 100 µM (inactive) | GI50 (SK-MEL-28): > 100 µM (inactive) | GI50 (SNB-75): > 100 µM (inactive) | GI50 (SR): > 100 µM (inactive) | GI50 (SW-620): > 100 µM (inactive) | GI50 (U-251): > 100 µM (inactive) | GI50 (UACC-257): > 100 µM (inactive) | GI50 (UACC-62): > 100 µM (inactive)

NNC(=S)N/N=C(/C(=O)Nc1ccc([N+](=O)[O-])cc1)c1nc2ccc([N+](=O)[O-])cc2nc1O
GI50 (A498): > 100 µM (inactive) | GI50 (ACHN): 95.3 µM (inactive) | GI50 (CAKI-1): > 100 µM (inactive) | GI50 (HCT-15): 74.6 µM | GI50 (HT-29): > 100 µM (inactive) | GI50 (Malme-3M): > 100 µM (inactive) | GI50 (NCI-H23): > 100 µM (inactive) | GI50 (OVCAR-4): > 100 µM (inactive) | GI50 (SF-295): > 100 µM (inactive) | GI50 (SK-MEL-28): > 100 µM (inactive) | GI50 (SNB-75): > 100 µM (inactive) | GI50 (SR): > 100 µM (inactive) | GI50 (SW-620): > 100 µM (inactive) | GI50 (U-251): > 100 µM (inactive) | GI50 (UACC-257): > 100 µM (inactive) | GI50 (UACC-62): > 100 µM (inactive)

C=C(CCCCC)CN1CCCC1C(C)=O (centres undefined)
GI50 (A498): 35 µM (inactive) | GI50 (ACHN): 25.5 µM (inactive) | GI50 (CAKI-1): 34.7 µM (inactive) | GI50 (HCT-15): 31.6 µM | GI50 (HT-29): 29.6 µM (inactive) | GI50 (Malme-3M): 41.8 µM (inactive) | GI50 (NCI-H23): 17.4 µM (inactive) | GI50 (OVCAR-4): 4.45 µM (inactive) | GI50 (SF-295): 26.8 µM (inactive) | GI50 (SK-MEL-28): 57.3 µM (inactive) | GI50 (SNB-75): 24.7 µM (inactive) | GI50 (SR): 14.9 µM (inactive) | GI50 (SW-620): > 57.9 µM (inactive) | GI50 (U-251): 30.6 µM (inactive) | GI50 (UACC-257): 26.6 µM (inactive) | GI50 (UACC-62): 25.4 µM (inactive)

N#C/N=C(/N)NCN/C(N)=N\C#N
GI50 (A498): > 100 µM (inactive) | GI50 (ACHN): > 100 µM (inactive) | GI50 (CAKI-1): > 100 µM (inactive) | GI50 (HCT-15): 22.3 µM | GI50 (HT-29): > 100 µM (inactive) | GI50 (Malme-3M): > 100 µM (inactive) | GI50 (NCI-H23): > 100 µM (inactive) | GI50 (OVCAR-4): 59.4 µM (inactive) | GI50 (SF-295): > 100 µM (inactive) | GI50 (SK-MEL-28): > 100 µM (inactive) | GI50 (SNB-75): > 100 µM (inactive) | GI50 (SR): 27.1 µM (inactive) | GI50 (SW-620): 17.4 µM (inactive) | GI50 (U-251): > 100 µM (inactive) | GI50 (UACC-257): > 100 µM (inactive) | GI50 (UACC-62): > 100 µM (inactive)

O=C(CC(c1ccccc1)C(C(=O)c1ccncc1)C(CC(=O)c1ccncc1)c1ccccc1)c1ccncc1 (centres undefined)
GI50 (A498): 71.8 µM (inactive) | GI50 (ACHN): 70 µM (inactive) | GI50 (CAKI-1): > 100 µM (inactive) | GI50 (DU-145): 96.6 µM (inactive) | GI50 (HCT-15): > 100 µM | GI50 (HT-29): > 100 µM (inactive) | GI50 (MDA-MB-435): > 100 µM (inactive) | GI50 (Malme-3M): > 100 µM (inactive) | GI50 (NCI-H23): 35 µM (inactive) | GI50 (NCI/ADR-RES): 49.3 µM (inactive) | GI50 (OVCAR-4): > 10 µM (inactive) | GI50 (SF-295): 29.8 µM (inactive) | GI50 (SK-MEL-28): > 100 µM (inactive) | GI50 (SNB-75): 23.7 µM (inactive) | GI50 (SR): > 100 µM (inactive) | GI50 (SW-620): > 100 µM (inactive) | GI50 (U-251): 42.8 µM (inactive) | GI50 (UACC-257): > 100 µM (inactive) | GI50 (UACC-62): 86.1 µM (inactive)

Cc1nc(Nc2ccc(Cl)cc2)sc1C(=O)Nc1cccc2c(=O)[nH][nH]c(=O)c12
GI50 (A498): 22.8 µM (inactive) | GI50 (ACHN): 20.9 µM (inactive) | GI50 (CAKI-1): 33.2 µM (inactive) | GI50 (HCT-15): 21.8 µM | GI50 (HT-29): 16.8 µM (inactive) | GI50 (Malme-3M): 36 µM (inactive) | GI50 (NCI-H23): 16.4 µM (inactive) | GI50 (OVCAR-4): 49.4 µM (inactive) | GI50 (SF-295): 24.7 µM (inactive) | GI50 (SK-MEL-28): 52.4 µM (inactive) | GI50 (SNB-75): 28 µM (inactive) | GI50 (SR): 21 µM (inactive) | GI50 (SW-620): 25.5 µM (inactive) | GI50 (U-251): 34.3 µM (inactive) | GI50 (UACC-257): 96.8 µM (inactive) | GI50 (UACC-62): 0.439 µM (active)
